Tested on: not given
Assay: not given

| SMILES | melting point |
| --- | --- |
| Nc1cccc(Cn2nnc3c(-c4ccco4)nc(N)nc32)c1 [Example 5, 3-(3-Aminobenzyl)-7-(2-furyl)-3H-[1,2,3]triazolo[4,5-d]pyrimidine-5-amine] | 259.8 to 259.9 °C |
| Cc1cccc(Cn2nnc3c(-c4ccco4)nc(N)nc32)c1[N+](=O)[O-] [Example 92, 7-(2-furyl)-3-(3-methyl-2-nitrobenzyl)-3H-[1,2,3]triazolo[4,5-d]pyrimidine-5-amine] | 267.9 to 268.5 °C |
| Nc1nc(-c2ccco2)c2nnn(Cc3cccc(F)c3F)c2n1 [Example 57, 3-(2,3-difluorobenzyl)-7-(2-furyl)-3H-[1,2,3]triazolo[4,5-d]pyrimidine-5-amine] | 188.8 to 188.9 °C |
| Nc1cccc(Cn2nnc3c(-c4nccs4)nc(N)nc32)c1 [Example 83, 3-(3-aminobenzyl)-7-(2-thiazolyl)-3H-[1,2,3]triazolo[4,5-d]pyrimidine-5-amine] | 252.8 to 253.3 °C |
| Cc1cccnc1Cn1nnc2c(-c3ccco3)nc(N)nc21 [Example 95, 7-(2-furyl)-3-(3-methyl-2-pyridylmethyl)-3H-[1,2,3]triazolo[4,5-d]pyrimidine-5-amine] | 249.8 to 250 °C |
| COc1cccc(Cn2nnc3c(-c4ccco4)nc(N)nc32)n1 [Example 32, 7-(2-furyl)-3-(6-methoxy-2-pyridylmethyl)-3H-[1,2,3]triazolo[4,5-d]pyrimidine-5-amine] | 191.4 to 192 °C |
| Nc1nc(-c2ccco2)c2nnn(CC(=O)Nc3ccccn3)c2n1 [Example 52, (5-amino-7-(2-furyl)-3H-[1,2,3]triazolo[4,5-d]pyrimidin-3-yl)-N-(2-pyridyl)acetamide] | 263.8 to 264 °C |
| COc1ccc(F)c(Cn2nnc3c(-c4ccco4)nc(N)nc32)c1 [Example 51, 3-(2-fluoro-5-methyoxybenzyl)-7-(2-furyl)-3H-[1,2,3]triazolo[4,5-d]pyrimidine-5-amine] | 182.9 to 183.1 °C |
| COc1ccnc(Cn2nnc3c(-c4ccco4)nc(N)nc32)c1 [Example 63, 7-(2-furyl)-3-(4-methoxy-2-pyridylmethyl)-3H-[1,2,3]triazolo[4,5-d]pyrimidine-5-amine] | 201.1 to 201.2 °C |
| CC(=O)Nc1cccc(Cn2nnc3c(-c4ccco4)nc(N)nc32)c1 [Example 160] | 277.4 to 277.9 °C |
| COc1ccccc1Cn1nnc2c(-c3ccco3)nc(N)nc21 [Example 77, 7-(2-furyl)-3-(2-methoxybenzyl)-3H-[1,2,3]triazolo[4,5-d]pyrimidine-5-amine] | 212.1 to 214.3 °C |
| Cc1ccc(-c2nc(N)nc3c2nnn3Cc2cccc(Cl)n2)o1 [Example 81, 3-(6-chloro-2-pyridylmethyl)-7-(5-methyl-2-furyl)-3H-[1,2,3]triazolo[4,5-d]pyrimidine-5-amine] | 229.3 to 229.4 °C |
| Cc1ccc(-c2nc(N)nc3c2nnn3Cc2cccc(N)c2)o1 [Example 36, 3-(3-aminobenzyl)-7-(5-methyl-2-furyl)-3H-[1,2,3]triazolo[4,5-d]pyrimidine-5-amine] | 231.7 to 234 °C |
| NCc1ccc(Cn2nnc3c(-c4ccco4)nc(N)nc32)cc1 [Example 144, 3-(4-aminomethylbenzyl)-7-(2-furyl)-3H-[1,2,3]triazolo[4,5-d]pyrimidine-5-amine] | > 300 °C (dec.) |
| C[Si](C)(C)CCOCOc1cc([N+](=O)[O-])ccc1Cn1nnc2c(-c3ccco3)nc(N)nc21 | 136.5 to 137.6 °C |
| Nc1nc(-c2ccco2)c2nnn(Cc3cccs3)c2n1 [Example 33, 7-(2-furyl)-3-(2-thienylmethyl)-3H-[1,2,3]triazolo[4,5-d]pyrimidine-5-amine] | 204.1 to 204.2 °C |

Results, then the molecule that gave them:

| melting point | SMILES |
| --- | --- |
| 210.5 to 211.6 °C | C=Cc1cccc(Cn2nnc3c(-c4ccco4)nc(N)nc32)n1 [Example 202, 7-(2-furyl)-3-(6-vinyl-2-pyridylmethyl)-3H-[1,2,3]triazolo[4,5-d]pyrimidine-5-amine] |
| 228.9 to 229.9 °C | Nc1nc(-c2ccco2)c2nnn(Cc3ccc4ccccc4n3)c2n1 [Example 188, 7-(2-furyl)-3-(quinolin-2-ylmethyl)-3H-[1,2,3]triazolo[4,5-d]pyrimidine-5-amine] |
| 184.5 to 184.6 °C | Nc1nc(-c2ccco2)c2nnn(Cc3cccc(NCc4ccccn4)c3)c2n1 [Example 255, 3-(3-(2-pyridylmethylamino)benzyl)-7-(2-furyl)-3H-[1,2,3]triazolo[4,5-d]pyrimidine-5-amine] |
| 219.7 to 222.3 °C | CN(C)Cc1cccc(Cn2nnc3c(-c4ccco4)nc(N)nc32)n1 [Example 233, 3-(6-(N,N-dimethylamino)methyl-2-pyridylmethyl)-7-(2-furyl)-3H-[1,2,3]triazolo[4,5-d]pyrimidine-5-amine] |
| 186.1 to 189.1 °C | Nc1cccc(Cn2nnc3c(-c4ccc[nH]4)nc(N)nc32)c1 [Example 191, 3-(3-aminobenzyl)-7-(1H-pyrrol-2-yl)-3H-[1,2,3]triazolo[4,5-d]pyrimidine-5-amine] |
| 155.6 to 157.1 °C | C=CCOCc1cccc(Cn2nnc3c(-c4ccco4)nc(N)nc32)n1 [Example 185, 3-(6-allyloxymethyl-2-pyridylmethyl)-7-(2-furyl)-3H-[1,2,3]triazolo[4,5-d]pyrimidine-5-amine] |
| 188.3 to 188.5 °C | CC(C)c1cccc(Cn2nnc3c(-c4ccco4)nc(N)nc32)n1 [Example 197, 7-(2-furyl)-3-(6-isopropyl-2-pyridylmethyl)-3H-[1,2,3]triazolo[4,5-d]pyrimidine-5-amine] |
| 215.8 to 216.9 °C | Nc1nc(-c2ccco2)c2nnn(Cc3ccsc3)c2n1 [Example 179, 7-(2-furyl)-3-(3-thienylmethyl)-3H-[1,2,3]triazolo[4,5-d]pyrimidine-5-amine] |
| 219.7 to 220.4 °C | Cc1ccc(-c2nc(N)nc3c2nnn3Cc2ccc(N)cc2)o1 [Example 184, 3-(4-aminobenzyl)-7-(5-methyl-2-furyl)-3H-[1,2,3]triazolo[4,5-d]pyrimidine-5-amine] |
| 190.8 to 190.9 °C | CCOc1cccc(Cn2nnc3c(-c4ccc(C)o4)nc(N)nc32)n1 [Example 254, 3-(6-ethoxy-2-pyridylmethyl)-7-(5-methyl-2-furyl)-3H-[1,2,3]triazolo[4,5-d]pyrimidine-5-amine] |
| 92.3 to 92.7 °C | C=CCOCc1cccc(Cn2nnc3c(-c4ccco4)nc(N(CC=C)CC=C)nc32)n1 [Example 182, 3-(6-Allyloxymethyl-2-pyridylmethyl)-N,N-diallyl-7-(2-furyl)-3H-[1,2,3]triazolo[4,5-d]pyrimidine-5-amine] |
| 181.8 to 182.1 °C | CCOc1cccc(Cn2nnc3c(-c4ccco4)nc(N)nc32)n1 [Example 253, 3-(6-ethoxy-2-pyridylmethyl)-7-(2-furyl)-3H-[1,2,3]triazolo[4,5-d]pyrimidine-5-amine] |
| 239.6 to 239.8 °C | Nc1nc(-c2ccco2)c2nnn(Cc3ccc(N)c(O)c3)c2n1 [Example 173, 3-(4-amino-3-hydroxybenzyl)-7-(2-furyl)-3H-[1,2,3]triazolo[4,5-d]pyrimidine-5-amine] |
| 223.3 to 223.4 °C | N#CCc1cccc(Cn2nnc3c(-c4ccco4)nc(N)nc32)n1 [Example 220, 3-(6-Cyanomethyl-2-pyridylmethyl)-7-(2-furyl)-3H-[1,2,3]triazolo[4,5-d]pyrimidine-5-amine] |

Target: human adenosine A2A receptors (Homo sapiens, UniProt P29274)
Assay: Binding affinities at hA2A receptors, displacement of [3H]-CGS 21680
Excerpt: Adenosine Receptor Binding Binding Affinities at hA2A Receptors

Chain of human adenosine A2A receptors (P29274 whole entry): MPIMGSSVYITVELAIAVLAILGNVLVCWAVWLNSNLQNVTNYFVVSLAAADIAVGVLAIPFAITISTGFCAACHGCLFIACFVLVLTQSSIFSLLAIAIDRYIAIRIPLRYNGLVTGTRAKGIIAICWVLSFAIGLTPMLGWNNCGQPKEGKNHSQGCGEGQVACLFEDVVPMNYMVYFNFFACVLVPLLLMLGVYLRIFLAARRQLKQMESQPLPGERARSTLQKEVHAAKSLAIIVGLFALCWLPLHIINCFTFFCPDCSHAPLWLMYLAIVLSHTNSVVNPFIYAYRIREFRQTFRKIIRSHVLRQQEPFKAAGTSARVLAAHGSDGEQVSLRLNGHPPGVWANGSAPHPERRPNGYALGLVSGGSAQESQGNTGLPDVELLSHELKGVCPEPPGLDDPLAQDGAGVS

| SMILES | Ki [nM] |
| --- | --- |
| Nc1cccc(Cn2nnc3c(-c4ccco4)nc(N)nc32)c1 [Example 5, 3-(3-Aminobenzyl)-7-(2-furyl)-3H-[1,2,3]triazolo[4,5-d]pyrimidine-5-amine] | 3 |
| Nc1nc(-c2ccco2)c2nnn(Cc3ccccc3N)c2n1 [Example 13, 3-(2-aminobenzyl)-7-(2-furyl)-3H-[1,2,3]triazolo[4,5-d]pyrimidine-5-amine] | 2 |
| Nc1nc(-c2ccco2)c2nnn(Cc3cccc([N+](=O)[O-])c3)c2n1 [Example 4, 7-(2-furyl)-3-(3-nitrobenzyl)-3H-[1,2,3]triazolo[4,5-d]pyrimidine-5-amine] | 4 |
| Nc1nc(-c2ccco2)c2nnn(Cc3c(F)cc(O)cc3F)c2n1 [Example 149, 3-(2,6-difluoro-4-hydroxybenzyl)-7-(2-furyl)-3H-[1,2,3]triazolo[4,5-d]pyrimidine-5-amine] | 1 |
| COc1cccc(Cn2nnc3c(-c4ccco4)nc(N)nc32)c1 [Example 11, 7-(2-furyl)-3-(3-methoxybenzyl)-3H-[1,2,3]triazolo[4,5-d]pyrimidine-5-amine] | 2 |
| Cc1cccc(Cn2nnc3c(-c4ccco4)nc(N)nc32)c1[N+](=O)[O-] [Example 92, 7-(2-furyl)-3-(3-methyl-2-nitrobenzyl)-3H-[1,2,3]triazolo[4,5-d]pyrimidine-5-amine] | 2 |
| Nc1nc(-c2ccco2)c2nnn(Cc3cccc(F)c3F)c2n1 [Example 57, 3-(2,3-difluorobenzyl)-7-(2-furyl)-3H-[1,2,3]triazolo[4,5-d]pyrimidine-5-amine] | 2 |
| Nc1nc(-c2ccco2)c2nnn(Cc3ccccc3F)c2n1 [Example 3, 3-(2-Fluorobenzyl)-7-(2-furyl)-3H-[1,2,3]triazolo[4,5-d]pyrimidine-5-amine] | 3 |
| Nc1nc(-c2ccco2)c2nnn(Cc3cc([N+](=O)[O-])ccc3F)c2n1 [Example 78, 3-(2-fluoro-5-nitrobenzyl)-7-(2-furyl)-3H-[1,2,3]triazolo[4,5-d]pyrimidine-5-amine] | 3 |
| Nc1nc(-c2ccco2)c2nnn(Cc3ccc(Cl)s3)c2n1 [Example 8, 3-(5-chloro-2-thienyl)methyl-7-(2-furyl)-3H-[1,2,3]triazolo[4,5-d]pyrimidine-5-amine] | 3 |
| N#Cc1cccc(Cn2nnc3c(-c4ccco4)nc(N)nc32)c1 [Example 15, 3-(3-cyanobenzyl)-7-(2-furyl)-3H-[1,2,3]triazolo[4,5-d]pyrimidine-5-amine] | 4 |
| Nc1nc(-c2ccco2)c2nnn(Cc3ccccc3[N+](=O)[O-])c2n1 [Example 12, 7-(2-furyl)-3-(2-nitrobenzyl)-3H-[1,2,3]triazolo[4,5-d]pyrimidine-5-amine] | 7 |

Further lines, results first:

| Ki [nM] | SMILES |
| --- | --- |
| 1 | C=Cc1cccc(Cn2nnc3c(-c4ccco4)nc(N)nc32)n1 [Example 202, 7-(2-furyl)-3-(6-vinyl-2-pyridylmethyl)-3H-[1,2,3]triazolo[4,5-d]pyrimidine-5-amine] |
| 2 | Nc1nc(-c2ccco2)c2nnn(Cc3ccc(O)cc3)c2n1 [Example 221, 3-(4-Hydroxybenzyl)-7-(2-furyl)-3H-[1,2,3]triazolo[4,5-d]pyrimidine-5-amine] |
| 1 | Nc1nc(-c2ccco2)c2nnn(Cc3ccc4ccccc4n3)c2n1 [Example 188, 7-(2-furyl)-3-(quinolin-2-ylmethyl)-3H-[1,2,3]triazolo[4,5-d]pyrimidine-5-amine] |
| 4 | Nc1nc(-c2ccco2)c2nnn(Cc3cccc(NCc4ccccn4)c3)c2n1 [Example 255, 3-(3-(2-pyridylmethylamino)benzyl)-7-(2-furyl)-3H-[1,2,3]triazolo[4,5-d]pyrimidine-5-amine] |
| 2 | Nc1nc(-c2ccco2)c2nnn(Cc3cc(I)ccc3F)c2n1 [Example 169, 3-(2-fluoro-5-iodobenzyl)-7-(2-furyl)-3H-[1,2,3]triazolo[4,5-d]pyrimidine-5-amine] |
| 4 | CN(C)Cc1cccc(Cn2nnc3c(-c4ccco4)nc(N)nc32)n1 [Example 233, 3-(6-(N,N-dimethylamino)methyl-2-pyridylmethyl)-7-(2-furyl)-3H-[1,2,3]triazolo[4,5-d]pyrimidine-5-amine] |

Source: patent publication US7589097B2, “Triazol[4,5-d] pyramidine derivatives and their use as purinergic receptor antagonists” (Vernalis Research Limited, priority 2001, dated 2009)
